“Also recorded” adds a separate entry of the source. Non-standard residues stand in square brackets, D forms with d. Residues, ends and D or L forms follow the SMILES beside them. *: point of attachment. Malonyl(2,2-Me2,histaminyl) = CC(C)(C(=O)NCCc1cnc[nH]1)C(=O)*; Ala(1H-tetrazol-5-yl) = N[C@@H](Cc1nnn[nH]1)C(=O)O; αMePhe(2-F) = C[C@](N)(Cc1ccccc1F)C(=O)O; Nle = CCCC[C@H](N)C(=O)O; Alloc = C=CCOC(=O)*
Columns and labels:
C57BL/6J male mice [1] = experiment: Dose response effect on intestinal mass in normal mice, 7 day dosing (FIG. 2); type: in vivo, mouse; details: daily sc
Protocol: The enhancement of the small bowel wet weight (over vehicle) is plotted as a function of the peptide dose. […] N=6 animals I grp.
C57BL/6J male mice (Charles River, Italy, ~8 weeks) are randomly allocated to the treatment group based on the baseline body weights. Animals are given free access to food and water during the whole duration of the study. Mice are dosed daily with the vehicle or test peptides via subcutaneous injection. On day 7, animals are sacrificed and segments from the upper small intestine (15 cm segment from the pylorus) are collected and weighed (see Example B).

mouse GLP1 receptor = molecular target: T1, mouse GLP1 receptor (Mus musculus, UniProt O35659); experiment: cAMP accumulation assay (HTRF), functional agonism of mouse GLP1 receptor in HEK cells; type: cell-based; details: HEK cells transiently transfected, 45 min 37° C.; for Emax: HEK293, read-out: Mouse GLP-1 R agonist cAMP Emax; for EC50: read-out: Mouse GLP-1 R agonist cAMP pEC50 (converted)
T1 construct: expressed in transfected cells; host or cells: HEK cells, transient transfection with GeneJuice
T1 sequence (O35659 22-463): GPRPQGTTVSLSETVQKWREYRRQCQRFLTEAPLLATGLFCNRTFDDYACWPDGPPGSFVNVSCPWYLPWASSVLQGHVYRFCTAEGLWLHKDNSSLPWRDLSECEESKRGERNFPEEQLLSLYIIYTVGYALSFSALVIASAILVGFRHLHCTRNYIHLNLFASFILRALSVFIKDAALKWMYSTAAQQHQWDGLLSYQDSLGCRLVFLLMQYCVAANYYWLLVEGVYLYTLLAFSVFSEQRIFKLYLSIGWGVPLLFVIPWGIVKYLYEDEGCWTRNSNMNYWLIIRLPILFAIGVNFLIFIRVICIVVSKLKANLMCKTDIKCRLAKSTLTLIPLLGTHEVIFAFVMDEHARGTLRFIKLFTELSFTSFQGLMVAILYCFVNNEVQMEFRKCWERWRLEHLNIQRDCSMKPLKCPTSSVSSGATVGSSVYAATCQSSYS

human GLP1 receptor = molecular target: T2, human GLP1 receptor (Homo sapiens, UniProt P43220); experiment: cAMP accumulation assay (HTRF), functional agonism of human GLP1 receptor in HEK cells; type: cell-based; details: HEK cells, human GLP1 receptor BacMam, 45 min 37° C.; for Emax: HEK293, read-out: Human GLP-1R agonist cAMP Emax; for EC50: read-out: Human GLP-1R agonist cAMP pEC50 (converted)
T2 construct: expressed in transfected cells; host or cells: HEK cells, BacMam virus transduction

C57BL/6J male mice [2] = experiment: Effect on intestinal wet weight in normal mice (FIG. 1); type: in vivo, mouse; details: once daily sc 270 nmol/kg (liraglutide iv 200 ug/kg), sacrificed on day 3, vs. vehicle
Protocol: Mice were sacrificed on day 3 and the wet weight of the small intestine was quantified. GLP-2 active peptides show significant enhancement of the small intestinal weight. […] N=6 animals / grp. *p < 0.05 vs. vehicle
C57BL/6J male mice (Charles River, Italy, ~8 weeks) are randomly allocated to the treatment group based on the baseline body weights. Animals are given free access to food and water during the whole duration of the study. Mice are dosed daily with the test compounds via subcutaneous injection. […] The abdominal cavity will be opened and the intestinal tissue is excised carefully to avoid perforation. Tissue from the upper small intestine (15 cm segment from the pylorus) is collected. The bowel is cleaned by flushing through with ice cold PBS to remove any feces.

mouse GLP2 receptor = molecular target: T3, mouse GLP2 receptor (Mus musculus, UniProt Q5IXF8); experiment: cAMP accumulation assay (HTRF), functional agonism of mouse GLP2 receptor in HEK cells; type: cell-based; details: HEK cells transiently transfected, 45 min 37° C.; for Emax: HEK293, read-out: Mouse GLP-2R agonist cAMP Emax; for EC50: read-out: Mouse GLP-2R agonist cAMP pEC50 (converted)
T3 construct: expressed in transfected cells; host or cells: HEK cells, transient transfection with GeneJuice
T3 sequence (Q5IXF8 1-512): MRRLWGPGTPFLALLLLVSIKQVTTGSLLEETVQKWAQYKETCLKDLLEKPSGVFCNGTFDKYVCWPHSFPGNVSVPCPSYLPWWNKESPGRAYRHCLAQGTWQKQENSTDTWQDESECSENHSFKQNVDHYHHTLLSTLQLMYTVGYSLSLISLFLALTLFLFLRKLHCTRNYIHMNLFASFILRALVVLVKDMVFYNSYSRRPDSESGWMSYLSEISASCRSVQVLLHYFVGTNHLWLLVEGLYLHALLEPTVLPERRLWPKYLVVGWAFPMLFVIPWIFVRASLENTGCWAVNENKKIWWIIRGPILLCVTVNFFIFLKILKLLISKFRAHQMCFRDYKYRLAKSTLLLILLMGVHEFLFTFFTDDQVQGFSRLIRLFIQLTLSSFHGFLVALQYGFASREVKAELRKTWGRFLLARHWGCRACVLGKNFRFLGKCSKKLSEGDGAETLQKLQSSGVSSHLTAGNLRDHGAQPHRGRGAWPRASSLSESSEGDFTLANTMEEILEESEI

human GLP2 receptor = molecular target: T4, human GLP2 receptor (Homo sapiens, UniProt O95838); experiment: cAMP accumulation assay (HTRF), functional agonism of human GLP2 receptor in HEK cells; details: for Emax: HEK293, read-out: Human GLP-2R agonist cAMP Emax;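 for all read-outs here: HEK cells transduced via BacMam to express human GLP2 receptor, agonist-stimulated cAMP measured by HTRF after 45 min at 37 °C in HBSS with 0.5 mM IBMX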
T4 sequence (O95838 1-553): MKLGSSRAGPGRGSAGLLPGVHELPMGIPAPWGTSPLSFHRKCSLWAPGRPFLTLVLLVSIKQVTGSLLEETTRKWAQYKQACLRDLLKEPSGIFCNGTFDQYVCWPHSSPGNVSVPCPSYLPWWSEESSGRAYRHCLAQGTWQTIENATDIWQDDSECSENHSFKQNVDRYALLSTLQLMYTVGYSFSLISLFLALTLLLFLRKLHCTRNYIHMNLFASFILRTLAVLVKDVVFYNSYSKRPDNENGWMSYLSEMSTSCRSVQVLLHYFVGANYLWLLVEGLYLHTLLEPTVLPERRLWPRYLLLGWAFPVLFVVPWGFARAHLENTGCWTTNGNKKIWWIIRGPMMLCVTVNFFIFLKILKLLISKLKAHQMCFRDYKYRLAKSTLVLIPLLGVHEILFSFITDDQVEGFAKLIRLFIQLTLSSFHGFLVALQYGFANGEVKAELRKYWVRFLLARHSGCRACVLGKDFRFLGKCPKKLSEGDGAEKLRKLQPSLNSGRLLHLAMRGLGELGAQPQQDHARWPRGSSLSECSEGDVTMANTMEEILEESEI
Protocol: The functional activity of the peptides were assessed using a HTRF cAMP assay. pEC50 values are quoted.
cAMP production upon agonist stimulation of human GLP2 or GLP1 receptor was assessed utilizing HiRange cAMP kit (Cisbio). In brief, HEK cells were infected with either human GLP2 or GLP1 receptor BacMam virus for 24 hours and frozen for later use in the assay. […] Cells were prepared in the assay buffer (HBSS (Lonza) supplemented with 0.5 mM IBMX (Tocris)). After 45 min incubation at 37° C., the reaction was stopped by addition of the HTRF detection reagents in the lysis buffer provided in the kit.

C57BL/6J male mice [3] = experiment: Effect on glucose tolerance (OGTT) in normal mice (FIG. 3); type: in vivo, mouse; details: mice fasted 6 h, 270 nmol/kg sc 1 hour before 2 g/kg oral glucose (liraglutide 200 ug/kg iv)
Protocol: One hour before glucose challenge, Example 1 or 3 (270 nmol/kg) or vehicle (0.1% Tween80 in PBS) was administered as a single subcutaneous injection. […] Serial blood glucose measurements were taken at baseline and at timepoints post oral glucose challenge. (A) Time course of blood glucose levels. N=6 animals / grp. Mean +/-SEM.
C57BL/6J male mice (Charles River, Italy, ~8w) are fasted for 6 hours on the day of testing with free access to drinking water. Prior to drug dosing, pre-dose blood glucose measurements are taken using a glucometer (ACCU-CHEK performa, Roche Diagnostic GmbH). Animals are dosed with either the vehicle (0.1% Tween80 in PBS) or compound (270 nmol/kg) via subcutaneous injection. […] 1 hour after dosing, mice are given 2 g/kg oral gavage of glucose and blood is sampled at defined time points for analysis of blood glucose levels. Timepoints of sampling: t=0 (prior to glucose dosing), 15 mins, 30 mins, 60 mins, 120 mins and 180 mins.

T2 sequence (P43220 24-463): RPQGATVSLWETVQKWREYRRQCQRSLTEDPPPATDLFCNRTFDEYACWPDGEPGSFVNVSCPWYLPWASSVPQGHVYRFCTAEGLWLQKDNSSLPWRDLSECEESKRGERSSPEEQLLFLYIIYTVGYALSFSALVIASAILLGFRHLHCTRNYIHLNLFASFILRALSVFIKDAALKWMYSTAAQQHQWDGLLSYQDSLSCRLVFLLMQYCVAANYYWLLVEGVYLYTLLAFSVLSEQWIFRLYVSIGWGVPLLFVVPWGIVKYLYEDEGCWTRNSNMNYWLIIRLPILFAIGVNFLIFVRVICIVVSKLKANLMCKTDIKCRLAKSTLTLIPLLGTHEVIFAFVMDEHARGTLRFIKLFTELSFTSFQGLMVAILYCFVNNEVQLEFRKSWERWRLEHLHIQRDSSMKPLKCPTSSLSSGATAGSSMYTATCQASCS

Emax (mouse GLP1 receptor) [%] | EC50 (mouse GLP1 receptor) [nM] | Emax (human GLP1 receptor) [%] | EC50 (human GLP1 receptor) [nM] | Emax (mouse GLP2 receptor) [%] | EC50 (mouse GLP2 receptor) [nM] | EC50 (human GLP2 receptor) [nM] | Emax (human GLP2 receptor) [%] | SMILES | enhancement of small bowel wet weight (over vehicle) as a function of dose (C57BL/6J male mice [1]) | wet weight of the small intestine (C57BL/6J male mice [2]) | peak blood glucose concentration in OGTT (C57BL/6J male mice [3])
99.5 | 0.398 | 99.2 | 0.0794 | 103 | 0.501 | 0.0158 | 102 | C=CCOC(=O)NCCCC[C@H](NC(=O)[C@H](CC(C)C)NC(=O)[C@H](CC(=O)O)NC(=O)[C@H](CC(C)C)NC(=O)[C@@H](NC(=O)[C@@H](NC(=O)[C@@H](Cc1ccccc1)NC(=O)[C@H](CCCC)NC(=O)[C@H](CCC(=O)O)NC(=O)[C@H](CC(=O)O)NC(=O)[C@H](CO)NC(=O)[C@](C)(Cc1ccccc1F)NC(=O)[C@H](CO)NC(=O)CNC(=O)[C@H](Cc1nn[nH]n1)NC(=O)C(C)(C)C(=O)NCCc1c[nH]cn1)[C@@H](C)O)[C@@H](C)CC)C(=O)N[C@@H](C)C(=O)N[C@@H](C)C(=O)N[C@@H](CCCCN)C(=O)N[C@@H](CC(=O)O)C(=O)N[C@@H](Cc1ccccc1)C(=O)N[C@H](C(=O)N[C@@H](CC(N)=O)C(=O)N[C@@H](Cc1c[nH]c2ccccc12)C(=O)N[C@@H](CC(C)C)C(=O)N[C@H](C(=O)N[C@@H](CCC(N)=O)C(=O)N[C@H](C(=O)N[C@@H](CCCCN)C(=O)N[C@H](C(=O)N[C@H](C(=O)N[C@@H](CC(=O)O)C(N)=O)[C@@H](C)O)[C@@H](C)CC)[C@@H](C)O)[C@@H](C)CC)[C@@H](C)CC [Example 3] ({Malonyl(2,2-Me2,histaminyl)}-[Ala(1H-tetrazol-5-yl)]GS[αMePhe(2-F)]SDE[Nle][dF]TILDLK(Alloc)AAKDFINWLIQTKITD-NH2) | greater maximal enhancements in small intestinal wet weight compared to Teduglutide; also recorded: dose dependent enhancements in the wet weight of the small intestine | superior enhancements in intestinal weight compared to Teduglutide; also recorded: Significant enhancement of intestinal wet weight | significantly reduced
95.9 | 3.16 | 94.1 | 3.16 | 102 | 0.2 | 0.01 | 102 | C=CCOC(=O)NCCCC[C@H](NC(=O)[C@H](CC(C)C)NC(=O)[C@H](CC(=O)O)NC(=O)[C@H](CC(C)C)NC(=O)[C@@H](NC(=O)[C@@H](NC(=O)[C@@H](Cc1ccccc1)NC(=O)[C@H](CCCC)NC(=O)[C@H](CCC(=O)O)NC(=O)[C@H](CC(=O)O)NC(=O)[C@H](CO)NC(=O)[C@H](Cc1ccccc1)NC(=O)[C@H](CO)NC(=O)CNC(=O)[C@H](Cc1nn[nH]n1)NC(=O)C(C)(C)C(=O)NCCc1c[nH]cn1)[C@@H](C)O)[C@@H](C)CC)C(=O)N[C@@H](C)C(=O)N[C@@H](C)C(=O)N[C@@H](CCCCN)C(=O)N[C@@H](CC(=O)O)C(=O)N[C@@H](Cc1ccccc1)C(=O)N[C@H](C(=O)N[C@@H](CC(N)=O)C(=O)N[C@@H](Cc1c[nH]c2ccccc12)C(=O)N[C@@H](CC(C)C)C(=O)N[C@H](C(=O)N[C@@H](CCC(N)=O)C(=O)N[C@H](C(=O)N[C@@H](CCCCN)C(=O)N[C@H](C(=O)N[C@H](C(=O)N[C@@H](CC(=O)O)C(N)=O)[C@@H](C)O)[C@@H](C)CC)[C@@H](C)O)[C@@H](C)CC)[C@@H](C)CC [Example 1] ({Malonyl(2,2-Me2,histaminyl)}-[Ala(1H-tetrazol-5-yl)]GSFSDE[Nle][dF]TILDLK(Alloc)AAKDFINWLIQTKITD-NH2) | greater maximal enhancements in small intestinal wet weight compared to Teduglutide; also recorded: dose dependent enhancements in the wet weight of the small intestine | superior enhancements in intestinal weight compared to Teduglutide; also recorded: Significant enhancement of intestinal wet weight | significantly reduced

Reference: patent US20230295260A1, “GLP RECEPTOR AGONISTS” (HEPTARES THERAPEUTICS LIMITED, priority 2020, published 2023)
